Source: publication PMC9490236, “Accurate de novo design of membrane-traversing macrocycles” (Cell, 2022)
“And” between values parts separate entries of the source, which are not always exact repeats. Identical values can stand only once. Like-named read-outs stand apart in the source and are kept apart here. Where a SMILES comes first, the peptide text is derived from it. [ ]: non-standard residue; d: D form. dNMeI = CC[C@@H](C)[C@@H](NC)C(=O)O; NMeL = CN[C@@H](CC(C)C)C(=O)O; dNMeL = CN[C@H](CC(C)C)C(=O)O; Sar = CNCC(=O)O

Columns and labels:
[1] = Parallel artificial membrane permeability assay (PAMPA); conditions: average of replicates R1-R3; BQL = no significant peak detected for the peptide in the acceptor wells
[2] = Pharmacokinetics and oral bioavailability of D8.3.p1 and D10.1 in Balb/C female mice (PO, SQ, IV); assay type: in vivo
Procedure: In vivo bioavailability assays were conducted in mice and rats. D8.3.p1 and D10.1 were studied in female Balb/C mice by van Voorhis group at University of Washington. D11.2 was evaluated in Sprague Dawley (SD) rats by Robert Griffin’s group at Takeda Pharmaceuticals. D11.3 was studied in the male swiss albino mice by the contract research organization, GVK Biosciences Pvt. Ltd., Hyderabad, India. All animals used in these studies were handled in strict accordance with practices made to minimize suffering. All animal experiments conducted at the University of Washington, USA, and Takeda Pharmaceuticals, USA were approved by the Institutional Animal Care and Use Committee. Animal studies at GVK Biosciences were reviewed and approved by the Institutional Animal Ethics Committee of GVK Biosciences. We selected four designed macrocycles with diverse structures and in vitro rates of permeability for in vivo oral bioavailability studies in the rodent models. Due to the intensive resource requirements for such studies, these studies were conducted by three different research groups. D8.3.p1 and D10.1 were studied in female Balb/C mice by van Voorhis group at University of Washington. D11.2 was evaluated in Sprague Dawley (SD) rats by Robert Griffin’s group at Takeda Pharmaceuticals. D11.3 was studied in the male swiss albino mice by the contract research organization, GVK Biosciences Pvt. Ltd., Hyderabad, India. […] Blood samples were collected at multiple time points and plasma was separated from whole blood using centrifugation and stored at -80°C. […] Samples were mixed, centrifuged, and supernatant harvested for LC-MS analysis. For RP-HPLC analysis, peptides were evaluated using Agilent ZORBAX Eclipse Plus C18 1.8 μm, 2.1 mm x 50 mm and Waters Xevo TQ-S micro Triple Quadrupole/ACQUITY UPLC H-Class. […] Pharmacokinetic parameters were modeled using the Phoenix WinNonlin software package. […]

Caco-2 cells = experiment: Caco-2 permeability assay (apical to basolateral); assay type: in vitro ADME, human; conditions: Caco-2
Outline: (§1)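 Apical-to-basolateral flux was determined by LC-MS of both compartments after 90 min at 37°C on an orbital shaker, with 50 μM peptide on the apical side and HBSS below. Monolayers were grown for 6 days in an accelerated Caco-2 Transwell format and verified by TEER before and after the run.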

[3] = Caco-2 permeability assay (apical to basolateral); assay type: in vitro ADME, human; conditions: for Papp A→B: Caco-2, Caco_Papp_Average
Outline: as §1

[4] = PAMPA
in vitro = conditions: PAMPA, PAMPA_Papp_Avg
[5] = D8.3.p1 IV 1 mg/kg, individual mice M1, M2, M3, 1 mg/kg
[6] = D8.3.p1 PO 5 mg/kg, individual mice M1, M2, M3, 5 mg/kg
[7] = D8.3.p1 SQ 5 mg/kg, individual mice M1, M2, M3
[8] = female, Balb/C, mouse, in vivo, iv, 1 mg/kg, Plasma level
[9] = female, Balb/C, mouse, in vivo, sc, 5 mg/kg, Plasma level

CC[C@@H](C)[C@H]1NC(=O)[C@@H](CC(C)C)NC(=O)[C@@H](CC(C)C)N(C)C(=O)[C@@H]2CCCN2C(=O)[C@@H](C(C)C)NC(=O)[C@H](CC(C)C)NC(=O)[C@@H](CC(C)C)N(C)C(=O)[C@@H]2CCCN2C1=O [Design D8.3.p1, DLEU DVAL PRO *DLEU DLEU DILE PRO *DLEU] (cyclo(L[dV]P[dNMeL][dL][dI]P[dNMeL]))
PAMPA_Papp_Avg [1]: 4.61E-06 | CLP [2, 5]: 37.62 mL/min/kg and 49.17 mL/min/kg and 38.55 mL/min/kg | MRT [2, 5]: 15.45 min and 13.12 min and 15.23 min | T1/2 [2, 5]: 14.5 min and 10.5 min and 11.24 min | VSS [2, 5]: 0.79 L/kg and 0.75 L/kg and 0.62 L/kg | VZ [2, 5]: 0.89 L/kg and 0.87 L/kg and 0.59 L/kg | C0 ([2]; D8.3.p1 IV 1 mg/kg, individual mice M1, M2, M3, 1 mg/kg, read-out: C0): 1610 nM and 1470 nM | Half-life T1/2 ([2]; D8.3.p1 IV 1 mg/kg, mean n=3): 12.08 min | Mean residence time MRT ([2]; D8.3.p1 IV 1 mg/kg, mean n=3): 14.60 min | Plasma clearance CLP ([2]; D8.3.p1 IV 1 mg/kg, mean n=3): 41.78 mL/min/kg | Volume of distribution @ steady state VSS ([2]; D8.3.p1 IV 1 mg/kg, mean n=3): 0.72 ± 0.09 L/kg | Volume of distribution during elimination phase VZ ([2]; D8.3.p1 IV 1 mg/kg, mean n=3): 0.78 ± 0.17 L/kg | C0 ([2]; D8.3.p1 IV 1 mg/kg, mean n=3, read-out: Initial concentration C0): 1530 ± 70 nM | Oral bioavailability F ([2]; D8.3.p1 PO 5 mg/kg vs IV 1 mg/kg, mean): 10.74% | Cl/F [2, 6]: 0.0112 L/min and 0.00671 L/min and 0.00706 L/min | T1/2 [2, 6]: 23.33 min and 18.86 min and 45.25 min | Tmax [2, 6]: 15 min and 30 min | Cmax ([2]; D8.3.p1 PO 5 mg/kg, individual mice M1, M2, M3, 5 mg/kg, read-out: Cmax): 220 nM and 190 nM | Apparent clearance Cl/F ([2]; D8.3.p1 PO 5 mg/kg, mean n=3): 0.00834 L/min | Half-life T1/2 ([2]; D8.3.p1 PO 5 mg/kg, mean n=3): 29.15 min | Time of max concentration Tmax ([2]; D8.3.p1 PO 5 mg/kg, mean n=3): 25 ± 0.01 min | Cmax ([2]; D8.3.p1 PO 5 mg/kg, mean n=3, read-out: Max concentration Cmax): 210 ± 20 nM | Cl/F [2, 7]: 0.000617 L/min and 0.000577 L/min and 0.000312 L/min | T1/2 [2, 7]: 111.2 min and 101.86 min and 250.78 min | Tmax [2, 7]: 60 min and 30 min | Cmax ([2]; D8.3.p1 SQ 5 mg/kg, individual mice M1, M2, M3, read-out: Cmax): 840 nM and 1080 nM and 930 nM | Half-life T1/2 ([2]; D8.3.p1 SQ 5 mg/kg, mean n=3): 154.61 min | Time of max concentration Tmax ([2]; D8.3.p1 SQ 5 mg/kg, mean n=3): 50 ± 17.32 min | Cmax ([2]; D8.3.p1 SQ 5 mg/kg, mean n=3, read-out: Max concentration Cmax): 950 ± 120 nM | Plasma level ([2]; female, Balb/C, mouse, in vivo, iv, 1 mg/kg, 5 min): 990 nM | Plasma level ([2]; female, Balb/C, mouse, in vivo, iv, 1 mg/kg, 0.25 h): 630 nM | level at time molar at 5 min [2, 8]: 1110 nM | level at time molar at 0.25 h [2, 8]: 420 nM | level at time molar at 0.5 h [2, 8]: 190 nM | Plasma level ([2]; female, Balb/C, mouse, in vivo, sc, 5 mg/kg, 0.25 h): 700 nM | Plasma level ([2]; female, Balb/C, mouse, in vivo, sc, 5 mg/kg, 0.5 h): 710 nM | Plasma level ([2]; female, Balb/C, mouse, in vivo, sc, 5 mg/kg, 2 h): 880 nM | Plasma level ([2]; female, Balb/C, mouse, in vivo, sc, 5 mg/kg, 6 h): 230 nM | level at time molar at 0.25 h [2, 9]: 510 nM | level at time molar at 0.5 h [2, 9]: 540 nM | level at time molar at 1 h [2, 9]: 840 nM | level at time molar at 2 h [2, 9]: 720 nM | level at time molar at 6 h [2, 9]: 150 nM | level at time molar at 24 h [2, 9]: 20 nM | level at time molar at 0.5 h ([2]; female, Balb/C, mouse, in vivo, sc, D8.3.p1 SQ 5 mg/kg, 30 min, individual mice M1, M2, M3, read-out: Plasma level): 1080 nM | AUC(0-inf) ([2]; female, Balb/C, mouse, in vivo, D8.3.p1 PO 5 mg/kg, mean n=3): 0.238 µM·h | AUC(0-t) ([2]; female, Balb/C, mouse, in vivo, D8.3.p1 PO 5 mg/kg, mean n=3, read-out: AUC0-t (converted)): 0.182 µM·h | CL/F ([2]; female, Balb/C, mouse, plasma, sc, D8.3.p1 SQ 5 mg/kg, mean n=3, read-out: Apparent clearance Cl/F): 0.502 mL/min | Tmax ([2]; mouse, in vivo, 5 mg/kg, Tmax): 60 min | Plasma level ([2]; mouse, in vivo, iv, 1 mg/kg, 5 min): 1070 ± 70 nM | Plasma level ([2]; mouse, in vivo, iv, 1 mg/kg, 0.5 h): 270 ± 90 nM | Plasma level ([2]; mouse, in vivo, iv, 1 mg/kg, 1 h): 60 ± 40 nM | C0 ([2]; mouse, in vivo, iv, 1 mg/kg, C0): 1520 nM | Plasma level ([2]; mouse, in vivo, po, 5 mg/kg, 1 h): 120 ± 40 nM | Plasma level ([2]; mouse, in vivo, po, 5 mg/kg, 2 h): 10 nM | Cmax ([2]; mouse, in vivo, po, 5 mg/kg, Cmax): 230 nM | Tmax ([2]; mouse, in vivo, po, 5 mg/kg, Tmax): 30 min | Plasma level ([2]; mouse, in vivo, sc, 5 mg/kg, 0.25 h): 610 ± 130 nM | Plasma level ([2]; mouse, in vivo, sc, 5 mg/kg, 0.5 h): 780 ± 280 nM | Plasma level ([2]; mouse, in vivo, sc, 5 mg/kg, 1 h): 900 ± 50 nM | Plasma level ([2]; mouse, in vivo, sc, 5 mg/kg, 2 h): 780 ± 90 nM | Plasma level ([2]; mouse, in vivo, sc, 5 mg/kg, 4 h): 340 ± 170 nM | Plasma level ([2]; mouse, in vivo, sc, 5 mg/kg, 6 h): 130 ± 120 nM | Plasma level ([2]; mouse, in vivo, sc, 5 mg/kg, 24 h): 10 ± 0 nM | Caco_R1 (Caco-2 cells): 13.1 | Caco_R3 (Caco-2 cells): 8.9 | Papp A→B [3]: 11.8 ×10⁻⁶ cm/s | PAMPA_R1 [4]: 5.23E-06 | PAMPA_R3 [4]: 3.90E-06

CC[C@@H](C)[C@H]1NC(=O)[C@H]([C@@H](C)CC)NC(=O)[C@H](CC(C)C)N(C)C(=O)[C@H]2CCCN2C(=O)[C@@H]([C@H](C)CC)NC(=O)[C@@H]([C@H](C)CC)N(C)C(=O)[C@H](CC(C)C)NC(=O)[C@H]2CCCN2C(=O)[C@@H]2CCCN2C(=O)[C@H](C(C)C)NC(=O)[C@H]2CCCN2C1=O [Design D11.3, VAL PRO DPRO LEU *DILE DILE DPRO *LEU ILE DILE DPRO] (cyclo(I[dI][dP]VP[dP]L[dNMeI][dI][dP][NMeL]))
Papp (in vitro): 1.48 ×10⁻⁶ cm/s | Caco_R1 (Caco-2 cells): 7.29 | Caco_R3 (Caco-2 cells): 11.26 | Papp ([3]; Caco-2): 9.11 ×10⁻⁶ cm/s | Papp A→B [3]: 9.11 ×10⁻⁶ cm/s | PAMPA_R1 [4]: 1.91E-06 | PAMPA_R3 [4]: 1.10E-06

CC[C@@H](C)[C@H]1NC(=O)[C@@H]2CCCN2C(=O)[C@@H]([C@H](C)CC)NC(=O)CN(C)C(=O)[C@H](CC(C)C)NC(=O)[C@@H](Cc2ccccc2)NC(=O)[C@H](CC(C)C)N(C)C(=O)[C@H]2CCCN2C(=O)[C@@H](CC(C)C)NC(=O)[C@H](CC(C)C)NC(=O)[C@H]2CCCN2C1=O [Design D11.2, DILE DPRO LEU DLEU DPRO *LEU DPHE LEU *GLY DILE PRO] (cyclo(L[Sar][dI]P[dI][dP]L[dL][dP][NMeL][dF]))
Papp (in vitro): 2.15 ×10⁻⁶ cm/s | Caco_R1 (Caco-2 cells): 1.94 | Caco_R3 (Caco-2 cells): 2.65 | Papp A→B [3]: 2.82 ×10⁻⁶ cm/s | PAMPA_R1 [4]: 1.82E-06 | PAMPA_R3 [4]: 2.50E-06
